Data as given in patent publication US8324212B2, “Compounds for the treatment of hepatitis C” (Bristol-Myers Squibb Company, priority 2010, dated 2012).

Tests used:
[1] = biological target: T1, HCV NS5B RdRp genotype 1b (Hepatitis C virus genotype 1b, UniProt Q9WMX2); assay: HCV NS5B RdRp enzyme assay; assay type: biochemical; conditions: standard or modified assay not stated
T1 construct: The cDNA encoding the NS5B protein of HCV, genotype 1b; made in house; host or cells: E. coli BL21 (DE3)
Experimental: HCV NS5B RdRp cloning, expression, and purification. The cDNA encoding the NS5B protein of HCV, genotype 1b, was cloned into the pET21a expression vector. The protein was expressed with an 18 amino acid C-terminal truncation to enhance the solubility. The E. coli competent cell line BL21 (DE3) was used for expression of the protein. Cultures were grown at 37° C. for ˜4 hours until the cultures reached an optical density of 2.0 at 600 nm. The cultures were cooled to 20° C. and induced with 1 mM IPTG. Fresh ampicillin was added to a final concentration of 50 μg/ml and the cells were grown overnight at 20° C.
Cell pellets (3L) were lysed for purification to yield 15-24 mgs of purified NS5B. The lysis buffer consisted of 20 mM Tris-HCl, pH 7.4, 500 mM NaCl, 0.5% triton X-100, 1 mM DTT, 1 mM EDTA, 20% glycerol, 0.5 mg/ml lysozyme, 10 mM MgCl2, 15 ug/ml deoxyribonuclease I, and Complete TM protease inhibitor tablets (Roche). After addition of the lysis buffer, frozen cell pellets were resuspended using a tissue homogenizer. To reduce the viscosity of the sample, aliquots of the lysate were sonicated on ice using a microtip attached to a Branson sonicator. The sonicated lysate was centrifuged at 100,000×g for 1 hr at 4° C. and filtered through a 0.2 μm filter unit (Corning).
The protein was purified using three sequential chromatography steps: Heparin sepharose CL-6B, polyU sepharose 4B, and Hitrap SP sepharose (Pharmacia). The chromatography buffers were identical to the lysis buffer but contained no lysozyme, deoxyribonuclease I, MgCl2 or protease inhibitor and the NaCl concentration of the buffer was adjusted according to the requirements for charging the protein onto the column. Each column was eluted with a NaCl gradient which varied in length from 5-50 column volumes depending on the column type. After the final chromatography step, the resulting purity of the enzyme is >90% based on SDS-PAGE analysis. The enzyme was aliquoted and stored at −80° C.
Standard HCV NS5B RdRp enzyme assay. HCV RdRp genotype 1b assays were run in a final volume of 60 μl in 96 well plates (Costar 3912). The assay buffer is composed of 20 mM Hepes, pH 7.5, 2.5 mM KCl, 2.5 mM MgCl2, 1 mM DTT, 1.6 U RNAse inhibitor (Promega N2515), 0.1 mg/ml BSA (Promega R3961), and 2% glycerol. All compounds were serially diluted (3-fold) in DMSO and diluted further in water such that the final concentration of DMSO in the assay was 2%. HCV RdRp genotype 1b enzyme was used at a final concentration of 28 nM. A polyA template was used at 6 nM, and a biotinylated oligo-dT12 primer was used at 180 nM final concentration. […] Plates were read on a Packard Top Count NXT after >1 hr incubation at room temperature. […]
IC50 values for compounds were determined using seven different [I]. […]

HCV replicon = HCV replicon assay (FRET / luciferase reporter); assay type: cell-based; conditions: Hepatitis C virus; HCV replicon cells (HUH-7)
Excerpt: FRET Assay Preparation. To perform the HCV FRET screening assay, 96-well cell culture plates were used. The FRET peptide (Anaspec, Inc.) (Taliani et al., Anal. Biochem. 1996, 240, 60-67) contains a fluorescence donor, EDANS, near one end of the peptide and an acceptor, DABCYL, near the other end. The fluorescence of the peptide is quenched by […] resonance energy transfer (RET) between the donor and the acceptor, but as the NS3 protease cleaves the peptide the products are released from RET quenching and the fluorescence of the donor becomes apparent. The assay reagent was made as follows: 5× cell Luciferase cell culture lysis reagent from Promega (#E153A) diluted to 1× with dH2O, NaCl added to 150 mM final, the FRET peptide diluted to 20 μM final from a 2 mM stock. […]
Assays. […] After reading in a Cytoflour 4000 instrument (PE Biosystems), plates were rinsed with PBS and then used for FRET assay by the addition of 30 ul of the FRET peptide assay reagent described above (FRET Assay Preparation) per well. The plate was then placed into the Cytoflour 4000 instrument which had been set to 340 excite/490 emission, automatic mode for 20 cycles and the plate read in a kinetic mode. Typically, the signal to noise using an endpoint analysis after the reads was at least three-fold. Alternatively, after Alamar blue reading, plates were rinsed with PBS, 50 ul of DMEM (high glucose) without phenol red was added and plates were then used for luciferase assay using the Promega Dual-Glo Luciferase Assay System.
Compound analysis was determined by quantification of the relative HCV replicon inhibition and the relative cytotoxicity values. To calculate cytoxicity values, the average Alamar Blue fluorescence signals from the control wells were set as 100% non-toxic. […]

HCV = conditions: cited from earlier work

T1 sequence (Q9WMX2 2420-2992): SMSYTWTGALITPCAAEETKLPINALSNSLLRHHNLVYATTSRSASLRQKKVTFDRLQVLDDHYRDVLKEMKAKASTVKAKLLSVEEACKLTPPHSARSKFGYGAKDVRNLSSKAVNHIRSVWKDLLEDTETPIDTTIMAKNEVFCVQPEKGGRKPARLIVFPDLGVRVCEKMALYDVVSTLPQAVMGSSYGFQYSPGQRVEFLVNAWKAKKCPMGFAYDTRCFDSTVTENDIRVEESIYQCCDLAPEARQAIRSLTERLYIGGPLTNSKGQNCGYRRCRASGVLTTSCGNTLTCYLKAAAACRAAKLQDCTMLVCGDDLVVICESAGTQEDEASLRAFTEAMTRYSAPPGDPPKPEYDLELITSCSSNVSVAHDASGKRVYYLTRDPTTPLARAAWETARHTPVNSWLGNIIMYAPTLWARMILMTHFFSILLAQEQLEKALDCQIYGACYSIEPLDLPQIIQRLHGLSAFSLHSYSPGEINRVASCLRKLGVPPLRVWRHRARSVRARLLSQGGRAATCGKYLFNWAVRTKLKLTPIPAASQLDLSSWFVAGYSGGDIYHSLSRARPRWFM

Row | Compound | IC50 [1] | EC50 (HCV replicon) | toxicity during extended dosing (HCV; patients, extended dosing of the combination regimens) | HCV RNA levels in patients (HCV; single agent or combined with interferon and ribavirin)
1 | CNC(=O)c1c(-c2ccc(F)cc2)nn2ncc(-c3cc(C(=O)NC4(c5ncccn5)CC4)c(OC)cc3C)cc12 [Example 4, 2-(4-fluorophenyl)-5-(4-methoxy-2-methyl-5-(1-(pyrimidin-2-yl)cyclopropylcarbamoyl)phenyl)-N-methylpyrazolo[1,5-b]pyridazine-3-carboxamide] | 14 nM | 12 nM | – | –
2 | CNC(=O)c1c(-c2ccc(F)cc2)nn2nccc(-c3cc(C(=O)NC4(c5ccccc5)CC4)ccc3C)c12 [Example 2, 2-(4-fluorophenyl)-N-methyl-4-(2-methyl-5-(1-phenylcyclopropylcarbamoyl)phenyl)pyrazolo[1,5-b]pyridazine-3-carboxamide] | 3060 nM | – | – | –
3 | CNC(=O)c1c(-c2ccc(F)cc2)nn2ncc(-c3cc(C(=O)NC4(c5ccccc5)CC4)c(OC)cc3C)cc12 [Example 3, 2-(4-fluorophenyl)-5-(4-methoxy-2-methyl-5-(1-phenylcyclopropylcarbamoyl)phenyl)-N-methylpyrazolo[1,5-b]pyridazine-3-carboxamide] | 11 nM | 2 nM | – | –
4 | CNC(=O)c1c(-c2ccc(F)cc2)nn2ncc(-c3cc(C(=O)NC4(c5ccccc5)CC4)ccc3C)cc12 [Example 1, 2-(4-fluorophenyl)-N-methyl-5-(2-methyl-5-(1-phenylcyclopropylcarbamoyl)phenyl)pyrazolo[1,5-b]pyridazine-3-carboxamide] | < 17 nM | 5 nM | – | –
5 | CNC(=O)c1c(-c2ccc(F)cc2)oc2cc(N(CCO)S(C)(=O)=O)c(C3CC3)cc12 [HCV-796] | – | – | hepatic toxicity observed | showed an ability to reduce HCV RNA levels in patients
